Where two headings read alike, the source gives them in different places.
Experiments:
[1] = target: pVHL30 (Homo sapiens, UniProt P40337); experiment: Immunoblot of pVHL30 protein level in HeLa cells after compound treatment; type: cell-based; parameters: endogenous in cells; host or cells: HeLa; settings: 10 h, read-out: pVHL30 band quantification normalized to 0.1% DMSO; for remaining activity at 1 µM: DMSO = 100, Fig. 4a
Description: (§1) Cell culture. Human cell lines HeLa, U2OS and HEK 293, purchased from ATCC, were propagated in DMEM supplemented with 10% fetal bovine serum (FBS), L- glutamine, 100 μg ml^−1 of penicillin/streptomycin at 37 °C and 5% CO2. Cells were maintained for no more than 30 passages. All cell lines were routinely tested for mycoplasma contamination using MycoAlert kit from Lonza. For compound treatment experiments, cells were transferred in six-well plates with either 3 × 10^5 or 5 × 10^5 cells per well in 2 ml of media. At 80% confluence, cells were treated with compounds at the desired concentration, reaching final DMSO concentration of 0.1% v/v. Cells were incubated at 37 °C and 5% CO2 for the desired time before harvesting.
(§2) Immunoblotting. Cells were lysed in lysis buffer (20 mM Tris pH 8, 150 mM NaCl, 1% Triton × 100) and a protease inhibitor cocktail (Roche) per 10 ml buffer. For protein extracts, the dishes were placed on ice. The media was aspirated and the tissue layer washed twice with ice-cold phosphate buffer saline (PBS). Lysis buffer (120 μl) was added and the cells detached from the surface with a cell scraper. After removal of the insoluble fraction by centrifugation, the protein concentration of the supernatant was determined by Pierce™ Coomassie (Bradford) Protein Assay Kit. Protein extracts were fractionated by SDS-PAGE on 4–12% Tris-Acetate NuPage® Novex® (Life Technologies) polyacrylamide gels and transferred to a nitrocellulose membrane using wet transfer. The membrane was then blocked with 5 % w/v Bovine serum albumin (BSA) in Tris-buffered saline (TBS) with 0.1% w/v Tween-20. For detecting proteins the following primary antibodies in the given concentrations were used: anti-β-Actin (Cell Signaling Technology, 4970S, 13E5) 1:2000, anti-VHL (Cell Signaling Technology, #68547) 1:1000, anti-Hif-1α (BD Biosciences, 610959, clone 54) 1:1,000, anti-hydroxy-HIF-1α (Hyp564) (Cell Signaling Techonology; #3434) 1:1,000, anti-PHD2 (Bethyl Laboratories; A300-322A) 1:1,000, anti-PHD3 (Bethyl Laboratories; A300-327A) 1:1000, anti-CRBN (Proteintech; 11435-1-AP) 1:1,000. Following incubation with a horseradish peroxidase-conjugated secondary antibody (Cell Signaling Technology), the signal was developed using enhanced chemiluminescence (ECL) Western Blotting Detection Kit (Amersham) on Amersham Hyperfilm ECL film (Amersham). Band quantification was performed using ImageJ software and reported as relative amount as ratio of the each protein band relative to the lane’s loading control. The values obtained were then normalized to 0.1% DMSO vehicle control. See Supplementary Fig. 12 for full-scanned images of western-blots shown in the main text figures.

[2] = target: pVHL19 (Homo sapiens, UniProt P40337); experiment: Immunoblot of pVHL19 protein level in HeLa cells after compound treatment; type: cell-based; parameters: endogenous in cells; host or cells: HeLa; settings: 10 h, read-out: pVHL19 band quantification normalized to 0.1% DMSO
Description: as §1, §2

pVHL19, sequence (P40337 54-213): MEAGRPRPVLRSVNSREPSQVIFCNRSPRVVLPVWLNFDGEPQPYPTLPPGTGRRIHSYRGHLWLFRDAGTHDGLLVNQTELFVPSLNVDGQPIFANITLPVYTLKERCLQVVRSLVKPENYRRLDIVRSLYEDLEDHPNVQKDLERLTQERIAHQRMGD
pVHL19, sequence (Q15369 whole entry partner): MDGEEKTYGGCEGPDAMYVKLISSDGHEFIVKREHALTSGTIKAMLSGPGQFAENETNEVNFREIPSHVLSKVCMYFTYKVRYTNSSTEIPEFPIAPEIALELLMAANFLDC
pVHL19, sequence (Q15370 whole entry partner): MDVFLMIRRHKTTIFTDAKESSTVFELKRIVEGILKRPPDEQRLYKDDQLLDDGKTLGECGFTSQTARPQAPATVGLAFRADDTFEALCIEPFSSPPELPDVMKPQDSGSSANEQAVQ
pVHL30, sequence (P40337 whole entry): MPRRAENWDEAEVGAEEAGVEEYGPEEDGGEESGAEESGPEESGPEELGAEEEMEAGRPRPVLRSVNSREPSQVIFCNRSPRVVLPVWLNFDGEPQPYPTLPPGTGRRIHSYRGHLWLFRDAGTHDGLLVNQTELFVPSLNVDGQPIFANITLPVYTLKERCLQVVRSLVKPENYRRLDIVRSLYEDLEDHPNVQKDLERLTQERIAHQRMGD

CC(=O)N[C@H](C(=O)N1C[C@H](O)C[C@H]1C(=O)NCc1ccc(-c2scnc2C)cc1OCCOCCOCCOCCOCCOc1cc(-c2scnc2C)ccc1CNC(=O)[C@@H]1C[C@@H](O)CN1C(=O)[C@@H](NC(C)=O)C(C)(C)C)C(C)(C)C [CMP106]
remaining pVHL30 protein level at 1 µM [1]: 114%
remaining activity at 1 µM [2]: 93%

CC(=O)N[C@H](C(=O)N1C[C@H](O)C[C@H]1C(=O)NCc1ccc(-c2scnc2C)cc1OCCOCCOCCOCCOCCOCC(=O)N[C@H](C(=O)N1C[C@H](O)C[C@H]1C(=O)NCc1ccc(-c2scnc2C)cc1)C(C)(C)C)C(C)(C)C [CMP112]
remaining activity at 1 µM [1]: 110%
remaining activity at 1 µM ([2]; 1 µM, DMSO = 100, Fig. 4a): 89%

Cc1ncsc1-c1ccc(CNC(=O)[C@@H]2C[C@@H](O)CN2C(=O)[C@@H](NC(=O)C2(C#N)CC2)C(C)(C)C)c(OCCOCCOCCOCCOCCOc2cc(-c3scnc3C)ccc2CNC(=O)[C@@H]2C[C@@H](O)CN2C(=O)[C@@H](NC(=O)C2(C#N)CC2)C(C)(C)C)c1 [CMP108]
remaining activity at 1 µM [1]: 126%
remaining activity at 1 µM ([2]; 1 µM, DMSO = 100, Fig. 4a): 97%

Cc1ncsc1-c1ccc(CNC(=O)[C@@H]2C[C@@H](O)CN2C(=O)[C@@H](NC(=O)COCCOCCOCCOCCOCCOc2cc(-c3scnc3C)ccc2CNC(=O)[C@@H]2C[C@@H](O)CN2C(=O)[C@@H](NC(=O)C2(C#N)CC2)C(C)(C)C)C(C)(C)C)cc1 [CMP113]
remaining pVHL30 protein level at 1 µM [1]: 121%
remaining activity at 1 µM [2]: 111%

Reference: paper PMC5635026, “Homo-PROTACs: bivalent small-molecule dimerizers of the VHL E3 ubiquitin ligase to induce self-degradation” (Nature Communications, 2017)
